Several values for one entry are separate records, joined by “and”; a condition that tells them apart may be missing. Identical values can stand only once. Bridge positions count the residues as written; N and C are the ends. Ends that are not written are not given here.
Assays:
AST-CRd (TR71151) = test: Aequorin luminescence receptor assay, CHO-K1-Aeq-Gα16 cells transiently expressing AST-CRd; assay type: cell-based, Carcinus maenas; details: for Activation of AST-CRd at saturating doses: 10, 1 µmol l^−1 peptide, quadruplicate
Text: The transcriptome of neural tissue of C. maenas, which has been previously assembled ([Oliphant et al., 2018]), identified four putative AST-C receptor candidates: TR71151a-d ([Oliphant et al., 2018]). These were chemically synthesized with a modified 5′ Kozak sequence (GAATTCGCCACC) and cloned in frame into a pcDNA3.1(+) plasmid vector (Genscript, Piscataway, NJ, USA). Separate aliquots of OneShot TOP10® E. coli cells (Invitrogen, Paisley, UK) were transformed with the plasmids and grown on LB plates containing 100 µg ml^−1 ampicillin overnight at 37°C. Positive clones were cultured overnight in LB broth with 100 µg ml^−1 ampicillin at 37°C and plasmids extracted using a Qiagen Plasmid Midiprep kit according to the manufacturer's instructions. Purified plasmids were re-sequenced (MWG Eurofins, Ebersberg, Germany) and analyzed using Geneious 9.1.8 ([Kearse et al., 2012]).
Chinese hamster ovary (CHO-K1) cells containing stably expressed apoaequorin (Perkin Elmer, Boston, MA) and either Gα16 or Gq subunit (control cells) were cultured in Dulbecco's Modified Eagle Medium (DMEM) F-12 Nutrient Mixture Glutamax (Gibco®) supplemented with 10% fetal bovine serum (Gibco®). Cells were maintained in vented T75 flasks at 37°C in 5% CO2. Cells grown in a monolayer to approximately 60% confluency were transfected with pcDNA 3.1 constructs using FugeneHD® (Promega) according to the manufacturer's recommendations. Transfection medium was prepared by combining 800 µl Opti-MEM® (Gibco) with 10 µg vector and the cells further incubated overnight. Cells were detached from the culture flask by incubating for 10 min in 5 ml 0.2% EDTA in PBS, washed in 10 ml clear DMEM–F-12 containing L-glutamine and 15 mmol l^−1 HEPES, centrifuged (for 5 min at 260 g) and resuspended at a concentration of 5×10^6 cells ml^−1 in 0.2 µm filtered BSA medium (DMEM–F-12 containing L-glutamine, 15 mmol l^−1 HEPES and 0.1% BSA). Coelenterazine h (Invitrogen, Paisley, UK) was added to give a concentration of 5 µmol l^−1, and the cells incubated in the dark at room temperature with gentle rocking. Before the assay, cells were further diluted (10-fold) and incubated for 60 min before use. Dried aliquots of peptides were reconstituted in BSA medium, and 50 µl added in quadruplicate to a white 96-well plate (Optiplate®, Perkin Elmer). Cell suspensions were gently stirred and injected (50 µl per well) using a Mithras LB 940 microplate reader (Berthold Technologies, Bad Wildbad, Germany) and light emission (Ca^2+ response recorded for 30 s). Cells were then lysed by injection of 50 µl per well 0.3% Triton-X in BSA medium, and light emission recorded for a further 10 s to measure total Ca^2+ response. BSA medium was used for blank measurements (six replicates per plate) and transfection with empty vectors was used for negative controls. Data were analyzed using Mikrowin 2010 v5 (Mikrotek Laborsysteme, Overath, Germany) and SigmaPlot v15 (Systat Software, Grafiti, Slough, UK).

AST-CR(d) = test: Aequorin luminescence receptor assay, AST-CR(d) construct in control cells expressing a Gq subunit; assay type: cell-based, Carcinus maenas; details: CHO-K1-Aeq control cells expressing a Gq subunit, transfected with AST-CR(d) construct
Experimental: Chinese hamster ovary (CHO-K1) cells containing stably expressed apoaequorin (Perkin Elmer, Boston, MA) and either Gα16 or Gq subunit (control cells) were cultured in Dulbecco's Modified Eagle Medium (DMEM) F-12 Nutrient Mixture Glutamax (Gibco®) supplemented with 10% fetal bovine serum (Gibco®). Cells were maintained in vented T75 flasks at 37°C in 5% CO2. Cells grown in a monolayer to approximately 60% confluency were transfected with pcDNA 3.1 constructs using FugeneHD® (Promega) according to the manufacturer's recommendations. Transfection medium was prepared by combining 800 µl Opti-MEM® (Gibco) with 10 µg vector and the cells further incubated overnight. […] Cell suspensions were gently stirred and injected (50 µl per well) using a Mithras LB 940 microplate reader (Berthold Technologies, Bad Wildbad, Germany) and light emission (Ca^2+ response recorded for 30 s). Cells were then lysed by injection of 50 µl per well 0.3% Triton-X in BSA medium, and light emission recorded for a further 10 s to measure total Ca^2+ response. […] Data were analyzed using Mikrowin 2010 v5 (Mikrotek Laborsysteme, Overath, Germany) and SigmaPlot v15 (Systat Software, Grafiti, Slough, UK).

[1] = system: semi-isolated heart preparations; test: Semi-isolated heart preparation bioassay; parameters: species or system Carcinus maenas; details: 10^−6 mol l^−1 in saline, 20°C, recorded about 2 min; four preparations
Text: To determine possible myotropic and/or myoinhbitory activity of AST-C, AST-CC and AST-CCC, inter-molt crabs (∼65 mm carapace width) were ice-anaesthetized and rapidly decerebrated before removing all limbs and the dorsal carapace to expose the heart and pericardial cavity. The preparation was then fitted into a bowl lined with tissue, to provide a stable saline-flooded environment. The heart was connected to a force transducer (MLT0210/A) via a micro-fishing hook (size 28) and fine nylon (0.08 mm) monofilament. Connection to a PC with Chart 4.0 software was via a Bridge Pod (ML301) and Powerlab 4/20 (AD Instruments, Castle Hill, NSW, Australia). Transducer gain was set at maximum sensitivity (200 μV). Heart preparations were initially perfused with Carcinus physiological saline ([Saver et al., 1999]) at room temperature (20°C). Once a stable output was achieved, hearts were then perfused by sequentially adding approximately 2 ml saline containing AST-C, AST-CC and AST-CCC (GenScript Biotech, Piscataway, NJ, USA), and finally adding CCAP as a positive control (all peptides were at a concentration of 10^−6 mol l^−1 in saline). Each peptide addition was followed by extensive washout with saline, recording heart rate and beat amplitude for approximately 2 min after application of each peptide.

Y-organs = test: Y-organ in vitro bioassay of ecdysteroid synthesis (ecdysteroid RIA); assay type: cell-based, Carcinus maenas; details: 100 nmol l^−1, 24 h incubation; N=3–6
Experimental: To determine the possible activity of AST-C and/or AST-CC on ecdysteroid synthesis, Y-organs (YOs) were dissected from ice-anaesthetized crabs and used in the in vitro bioassay as detailed previously ([Webster, 1986]). Following 24 h incubations, culture medium was aspirated and snap frozen in liquid nitrogen prior to ecdysteroid RIA. YOs were sonicated in PBS, centrifuged (13,000 g for 5 min at room temperature) and assayed for protein concentration using a BCA protein kit (EMD Millipore, Burlington MA, USA). Protein concentrations (BSA standards) were used to normalize ecdysteroid synthesis between YO pairs.
Ecdysteroid RIAs were performed on 20 µl aliquots of culture medium using the following conditions: 100 μl 1:2000 anti-ecdysteroid serum HB-2E (a kind gift from R. D Watson, Alabama University), 100 µl H^−3 Ponasterone A [24, 25, 26, 27-3H (N), 3.5 TBq mmol^−1 (American Radiochemical Company, St Louis, MO, USA)] at 28,000 dpm per tube. 25-Deoxyecdysone (a kind gift from Prof. R. Lafont, Sorbonne University, Paris) was used as a standard (range 2500–19.5 pg per tube), and unknowns and standards were assayed in triplicate. Bound was separated from free using 50 µl per tube immobilized donkey anti-rabbit nitrocellulose suspension (Sac-Cel), as detailed for the AST-C RIA. Pellets were resuspended in 600 µl Hi-Safe 3 (Perkin Elmer) prior to counting. Using this RIA, both ecdysone and 25-deoxyecdysone (the two ecdysteroids synthesized by C. maenas YOs) were equally recognized.

AST-C receptor = details: cited from earlier work; for EC50: Apis mellifera single AST-C receptor, ref Urlacher et al., 2016, read-out: EC50, receptor activation; for ED50, receptor activation: Tribolium castaneum AST-C receptor, ref Audsley et al., 2013
Text: Thus, the cognate receptor for AST-CCC remains elusive. Despite the well-known similarity in receptor sequences between AST-CR and the somatostatin receptor ([Krienkamp et al., 2002]; [Mayoral et al., 2010]; [Jékely, 2013]; [Verl ...

Substance | Activation of AST-CRd at saturating doses (AST-CRd (TR71151)) | ED50, luminescence response (AST-CRd (TR71151); CHO-K1-Aeq-Gα16 cells transiently expressing AST-CRd, assayed in quadruplicate, two independent experiments, approximate values) | Luminescent response in control cells (AST-CR(d)) | Effect on heartbeat amplitude [1] | Effect on heartbeat frequency (heart rate) [1] | Effect on ecdysteroid synthesis by Y-organs (Y-organs) | EC50 (AST-C receptor) [nM] | ED50, receptor activation (AST-C receptor) [nM]
GNGDGRLYWRCYFNAVSCF (disulfide 11-18 (inferred)) [AST-CC, C. maenas AST-C family neuropeptide; synthetic (GenScript)] | equally active | 2 nM and 2 to 6 nM | no luminescent response | entirely unaffected | entirely unaffected | entirely without effect | 15.4 | 105.7
pQIRYHQCYFNPISCF (disulfide) [AST-C, allatostatin-C, C. maenas AST-C family neuropeptide with C-terminal PISCF motif; synthetic (GenScript)] | equally active |  | no luminescent response | entirely unaffected | entirely unaffected | entirely without effect | 14.6 | 25
